The subject of one assay is C57BL/6J mice. The experiment in a line: Bleomycin mouse model of idiopathic pulmonary fibrosis, alveolar area (FIG. 8). The class given is in vivo. The settings on record: Day 21. As for the experimental part: FIGS. 8A-8B. […] Additionally, a normal control group (NC; n=3) without Bleo, and a Bleo Control group (n=7) without test article treatment were also included in this study. On Day 21 post Bleo administration, the mice were sacrificed under isoflurane anesthesia, and their lung tissues were harvested. FIG. 8B) A part of the lung tissue was fixed in 4% PFA, and Azan staining was performed, and alveolar areas (inversely proportional to the degree of fibrosis) were measured by Image J in a blinded setting. Error bars indicate standard error of the mean. Statistical analysis was performed by Student t-test on GraphPad Prism (n=3, 7, 7, 7, and 7); NC, Bleo Control, SEQ ID NO: 31, Pir, and Combo (SEQ ID NO: 31 & pirfenidone) *** P<0.001, ns=not significant vs NC.
Animal care and treatment: Male C57BL/6J mice (6 weeks-old) were purchased from Kyudo (Saga, Japan) and maintained under a 12-hour light/12-hour dark cycle with free access to water and standard mouse diet (MF diet, Oriental Yeast Co., Ltd. Tokyo, Japan). To induce lung fibrosis, mice received IT administration of bleomycin (Bleo; 1.0 mg/kg; Nippon Kayaku Tokyo, Japan). […] Alveolar area, which is inversely proportional to fibrotic area, were measured by Image J in a blinded setting (NIH, Bethesda, MD, USA).

A further assay concerns the target T1, human NPRB (Homo sapiens, UniProt P20594).
T1 construct: NPRB R1-T433, (GenBank Accn. #NP_003986.2); made in house; host or cells: Expi293 cells
T1 sequence (P20594 23-455): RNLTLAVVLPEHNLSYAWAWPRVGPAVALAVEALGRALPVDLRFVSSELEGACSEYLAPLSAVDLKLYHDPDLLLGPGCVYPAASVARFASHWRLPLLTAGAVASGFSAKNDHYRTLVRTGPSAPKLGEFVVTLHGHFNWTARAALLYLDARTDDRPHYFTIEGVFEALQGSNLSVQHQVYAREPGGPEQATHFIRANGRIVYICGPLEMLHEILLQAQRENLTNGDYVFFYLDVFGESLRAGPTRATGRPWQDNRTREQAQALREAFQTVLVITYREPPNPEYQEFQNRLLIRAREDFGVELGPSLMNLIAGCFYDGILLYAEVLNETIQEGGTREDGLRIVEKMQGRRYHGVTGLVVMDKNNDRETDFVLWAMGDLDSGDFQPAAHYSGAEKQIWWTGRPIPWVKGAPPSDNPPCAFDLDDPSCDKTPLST
The experiment in a line: Fluorescence polarization (FP) assay with CNP-F* probe, NPRB. The class given is binding. The settings on record: 150 nM test article, 5 nM CNP-F*, 50 nM human NPRB. As for the experimental part:
Error bars represent standard error of the mean. […] NO.
In the presence of [SEQ ID.
The CNP-F* probe was incubated at a final concentration of 5 nM in the presence of 50 nM human NPRB or NPRC in an assay buffer containing PBS, pH 7.4 and 0.01% Triton X-100. A […] volume of CNP-F* probe and NPR were dispensed into a black 96-well Costar flat-bottom polystyrene plate prior to FP measurement. Next, […] volume of SEQ ID. No. 31 (final concentration 150 nM) was added to the premixed probe and NPR. The plate was incubated at room temperature for 10 min. Fluorescence polarization was then measured on Flexstation 3 (excitation wavelength: 480 nm; emission wavelength: 525 nm and cutoff at 515 nm).
CNP-F* was prepared using solid phase peptide synthesis. […] Next, the crude linear peptide was cleavage with 95% TFA in the presence of carbocation scavengers and ether precipitation.
A general note: Polarisation of emitted light reports the rotation of a fluorescent probe.

Bridge positions count the residues as written; N and C are the ends. Square brackets hold non-standard residues; d marks the D form. Peptide text beside a SMILES is read from it. * marks the point of attachment. Palmitoyl = CCCCCCCCCCCCCCCC(=O)*; Dap = NC[C@H](N)C(=O)O; AEEA = NCCOCCOCC(=O)O

Turning to `CCCCCCCCCCCCCCCC(=O)NCCOCCOCC(=O)NCCOCCOCC(=O)NCCOCCOCC(=O)N[C@@H](CN)C(=O)N[C@@H](CN)C(=O)NCC(=O)N[C@@H](CC(C)C)C(=O)N[C@@H](CO)C(=O)N[C@@H](CCCCN)C(=O)NCC(=O)N[C@H]1CSSC[C@@H](C(=O)O)NC(=O)CNC(=O)[C@H](CC(C)C)NC(=O)CNC(=O)[C@H](CO)NC(=O)[C@H](CCC(N)=O)NC(=O)[C@H](CO)NC(=O)CNC(=O)[C@H]([C@@H](C)CC)NC(=O)[C@H](CCCNC(=N)N)NC(=O)[C@H](CC(=O)O)NC(=O)[C@H](CC(C)C)NC(=O)[C@H](CCCCN)NC(=O)[C@H](CC(C)C)NC(=O)CNC(=O)[C@H](Cc2ccccc2)NC1=O` [SEQ ID NO: 31] ({Palmitoyl-AEEA-AEEA-AEEA}-[Dap][Dap]GLSKGCFGLKLDRIGSQSGLGC-OH; disulfide 8-24; C-terminus assumed), the “Alveolar area (inversely proportional to fibrosis)” value with C57BL/6J mice (alone, 0.3 mg/kg SC once a day on weekdays from day 7) is reported as “significantly higher alveolar area”; in the assay on C57BL/6J mice (in combination with pirfenidone 100 mg/kg orally) it was “significantly higher alveolar area”. The “Binding to NPRB (FP signal of CNP-F* probe)” value at human NPRB was “low FP signal demonstrates binding”.

(Values after patent publication US20240325544A1, “CATIONIC LIPID FOR COVALENT MODIFICATION OF PEPTIDES” (PharmalN Corporation, priority 2023, published 2024).)
